Measured values from patent US7378387B2, “Method of suppressing immune response by reducing intracellular content of glutathione in macrophages and monocytes” (Ajinomoto Co., Inc., priority 1997, dated 2008).

Tests used:
[1] = system: peritoneal exudate cells (macrophages); test: Induction of oxidative and reductive macrophages, monochlorobimane/ACAS (Example 1); type: in vivo; conditions: LPS 20 μg or lentinan 100 μg three times every two days into the abdominal cavity of a mouse
Procedure: These were clarified by adhering peritoneal exudate cells to the plastic surface, then reacting the same with 10 μM of monochlorobimane at 37° C. for 30 minutes and conducting analysis with Adherent Cell Analyzing System (ACAS). The increase in the amounts of oxidative macrophages can easily be measured visually from the fact that almost no reaction product is observed, that is, gray or blue image is obtained, and the increase in the amounts of reductive macrophages from the fact that the red or yellow image is obtained, respectively.

IL-12 = IL-12 production by MΦ induced by intraperitoneal injection of substances (Example 7); type: in vivo, mouse
Procedure: The amount of IL-12 was determined through bioassay using cells of human T cell strain 2D6 (J. Leukocyte Biology, vol. 61, p. 346, 1997).
2D6 cells which had been incubated in an RPMI 1640 medium containing 500 pg/ml of recombinant human IL-12, 50 μM of 2-mercaptoethanol and 10% FCS (fetal calf serum) were moved to a tube, and centrifugally washed three times with the above-mentioned medium without IL-12 and cell density was adjusted to 1×10^5/ml. The cell suspension was added in an amount of 100 μl each to a 96-well flat bottom plate containing a sample serially diluted in advance with an RPMI 1640 medium containing 50 μM of 2-mercaptoethanol and 10% FCS in an amount of 100 μl each. Subsequently, the mixture was charged into a 5% […] incubator of 37° C., and incubated for 48 hours. For final 6 hours, ^3H-TdR was pulsed (a substance adjusted to 370 kBq/ml in an RPMI 1640 medium containing 50 μM of 2-mercaptoethanol and 10% FCS was added in an amount of 50 μl each). The cells a harvested, and the radioactivity was measured using a β counter (Matrix 96, supplied by Packard).
It was examined whether there is a difference in the IL-12 production between LNT-induced MΦ and LPS-induced MΦ. […] Next, the same analysis was conducted using MΦ induced by intraperitoneally injecting substances for changing the GSH content in cells.

[2] = system: adjuvant-induced arthritis; test: Adjuvant-induced arthritis (AA) in rats, joint swelling (Examples 18 and 19); type: in vivo, Lewis rats
Procedure: Adjuvant-induced arthritis was triggered in Lewis rats in a conventional manner; and the effects of chemical agents were examined in the animals. Adjuvant-induced arthritis is well known as an experimental arthritis inducible in rats [Taurog et al., Meth. Enzymol. 162, 339-355 (1988)]. […] An adjuvant is administered at 1 mg/0.1 ml per rate at a site of caudal root. The edema reaches its peak about 2 to 3 weeks after the administration of the adjuvant. The edema is triggered by inflammatory infiltration of monocytes. Swollen joints are measured with a micrometer every day; comparing the diameters of the joints prior to and after adjuvant administration and after initiation of the treatment with chemical agents with the diameters of the joints in the control group, the effects of the chemical agents were expressed as the ratio in % of joint swelling in the experimental groups to joint swelling in the control group. The effects were determined on day 15 after adjuvant administration. The chemical agents were given, starting the day next to the day of adjuvant administration, and every 3 days thereafter.
A single dose is 1 mg/kg for (NAC)2 and (NAC-OMe)2; 100 mg/kg for NAC; and 0.1 mg/kg for lentinan.
Adjuvant-induced arthritis was induced in Lewis rats in a conventional manner. In the same manner as in Example 11, the effects of chemical agents were examined in these rats. The conditions were the same as described above.

[3] = system: spontaneous onset of insulin-dependent diabetes mellitus; test: Onset of diabetes mellitus in NOD mice dosed at age 3 to 6 weeks (Example 23); type: in vivo; conditions: intraperitoneal, three times per week, nine times
Procedure: NOD mice purchased from Nippon Clair, Co. were naturally mated together. Among the off spring mice, a colony of NOD mice with a high frequency of the spontaneous onset of insulin-dependent diabetes mellitus was established. Female NOD mice from the colony were used for the present experiment. […] Urine glucose was detected, using Uropaper (BM Test Glucose 5000, manufactured by Yamanouchi Pharmaceuticals, Co. Ltd.). Chemical agents were administered intraperitoneally, unless otherwise stated. […] (NAC)2 and (NAC-OMe)2 were at a single dose of 20 μg/animal; and NAC and GSHOEt were at a single dose of 2 μg/animal; and a single dose of lentinan was 0.1 mg/kg.

[4] = system: spontaneous onset of insulin-dependent diabetes mellitus; test: Onset of diabetes mellitus in NOD mice dosed at age 3 to 6 and 9 to 11 weeks (Example 24); type: in vivo; conditions: route not given, 0.1 mg/kg; 15 times in total; judged on week 22; saline 60
From the text: NOD mice purchased from Nippon Clair, Co. were naturally mated together. Among the off spring mice, a colony of NOD mice with a high frequency of the spontaneous onset of insulin-dependent diabetes mellitus was established. Female NOD mice from the colony were used for the present experiment. […] Urine glucose was detected, using Uropaper (BM Test Glucose 5000, manufactured by Yamanouchi Pharmaceuticals, Co. Ltd.). The onset was judged on week 22.

[5] = system: spontaneous onset of insulin-dependent diabetes mellitus; test: Onset of diabetes mellitus in NOD mice dosed at age 9 to 11 weeks (Example 25); type: in vivo; conditions: route not given, nine times, judged on week 22, saline 67
From the text: NOD mice purchased from Nippon Clair, Co. were naturally mated together. Among the off spring mice, a colony of NOD mice with a high frequency of the spontaneous onset of insulin-dependent diabetes mellitus was established. Female NOD mice from the colony were used for the present experiment. Chemical agents were orally or intraperitoneally administered to the NOD mice aged 9 to 11 weeks three times per week, in total nine times; and based on the test results of urine glucose, positive or negative, the onset of diabetes mellitus was followed once per week. Urine glucose was detected, using Uropaper (BM Test Glucose 5000, manufactured by Yamanouchi Pharmaceuticals, Co. Ltd.). The onset was judged on week 22; the doses were the same as in Example 24.

Lentinan [reference compound]
type of macrophages induced (GSH by monochlorobimane, ACAS) [1]: reductive macrophages were induced
IL-12 production (IL-12; MΦ induced by intraperitoneal injection of the substance, stimulation with LPS and IFNγ): 1,312 pg/ml
IL-12 production of substance-induced MΦ, without DEM or IL-4 (IL-12; baseline values of the DEM and IL-4 experiments): 828 pg/mL
Ratio in % of joint swelling in experimental groups to joint swelling in control group ([2]; Table 3, day 15 after adjuvant, every 3 days, single dose 1 mg/kg (NAC)2 and (NAC-OMe)2, 100 mg/kg NAC, 0.1 mg/kg lentinan): 52%
Ratio in % of joint swelling in experimental groups to joint swelling in control group ([2]; Table 4, intravenous): 50%
Frequency (%) of onset of diabetes mellitus, on age 18 weeks ([3]; saline 50): 10%
Frequency (%) of onset of diabetes mellitus, on age 22 weeks ([3]; saline 80): 20%
Frequency (%) of onset of diabetes mellitus [4]: 0%
Frequency (%) of onset of diabetes mellitus [5]: 50%
